Results on 4 compounds are retold here after US9266939B2, “Compositions comprising natriuretic peptides and methods of use thereof” (Alexion Pharmaceuticals, Inc., priority 2010, dated 2016).

Bridge positions count the residues as written; N and C are the ends. Ends that are not written are not given here. Peptide text beside a SMILES is read from it.

In the data set the target is neutral endopeptidase (NEP) (Homo sapiens, UniProt P08473). Kind of data set: in vitro. Conditions: isolated enzyme neprilysin, pH 7.5.
Chain of neutral endopeptidase (NEP) (P08473 whole entry): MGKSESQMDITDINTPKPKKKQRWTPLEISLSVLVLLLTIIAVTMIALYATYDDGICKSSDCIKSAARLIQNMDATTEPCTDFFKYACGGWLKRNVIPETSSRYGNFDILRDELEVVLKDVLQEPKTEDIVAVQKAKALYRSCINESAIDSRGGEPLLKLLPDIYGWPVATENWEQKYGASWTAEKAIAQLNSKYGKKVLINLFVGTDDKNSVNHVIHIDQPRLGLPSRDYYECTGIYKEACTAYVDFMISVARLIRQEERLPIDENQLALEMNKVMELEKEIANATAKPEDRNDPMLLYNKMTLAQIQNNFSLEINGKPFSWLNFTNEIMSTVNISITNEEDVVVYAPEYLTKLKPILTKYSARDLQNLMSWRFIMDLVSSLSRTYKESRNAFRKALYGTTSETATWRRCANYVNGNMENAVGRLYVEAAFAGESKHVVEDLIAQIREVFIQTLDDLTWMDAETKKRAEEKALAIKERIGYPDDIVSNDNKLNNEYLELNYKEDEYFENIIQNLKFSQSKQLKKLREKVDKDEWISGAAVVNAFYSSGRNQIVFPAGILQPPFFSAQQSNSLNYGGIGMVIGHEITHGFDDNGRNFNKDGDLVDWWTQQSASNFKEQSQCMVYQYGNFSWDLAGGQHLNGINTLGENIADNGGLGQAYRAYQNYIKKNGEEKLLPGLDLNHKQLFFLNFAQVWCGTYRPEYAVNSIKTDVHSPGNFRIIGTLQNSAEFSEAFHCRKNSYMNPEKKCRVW
For `CC[C@H](C)[C@@H]1NC(=O)[C@H](CCCNC(=N)N)NC(=O)[C@H](CC(=O)O)NC(=O)[C@H](CC(C)C)NC(=O)[C@H](CCCCN)NC(=O)[C@H](CC(C)C)NC(=O)CNC(=O)[C@H](Cc2ccccc2)NC(=O)[C@@H](NC(=O)CNC(=O)[C@H](CCCCN)NC(=O)[C@H](CO)NC(=O)[C@H](CC(C)C)NC(=O)CN)CSSC[C@@H](C(=O)N2CCC[C@H]2C(=O)N[C@@H](CO)C(=O)N[C@@H](CO)C(=O)N[C@@H](C)C(=O)N[C@@H](C)C(=O)N[C@@H](CCCNC(=N)N)C(=O)N[C@@H](CCCNC(=N)N)C(=O)O)NC(=O)CNC(=O)[C@H](CC(C)C)NC(=O)CNC(=O)[C@H](CO)NC(=O)[C@H](CCSC)NC(=O)[C@H](CO)NC(=O)CNC1=O` [CDNP29-S3A4A5R6 [C14]], the amount remaining at 4 h came to 99%.
Consider `CC[C@H](C)[C@@H]1NC(=O)[C@H](CCCNC(=N)N)NC(=O)[C@H](CC(=O)O)NC(=O)[C@H](CC(C)C)NC(=O)[C@H](CCCCN)NC(=O)[C@H](CC(C)C)NC(=O)CNC(=O)[C@H](Cc2ccccc2)NC(=O)[C@@H](NC(=O)CNC(=O)[C@H](CCCCN)NC(=O)[C@H](CO)NC(=O)[C@H](CC(C)C)NC(=O)CN)CSSC[C@@H](C(=O)N2CCC[C@H]2C(=O)N[C@@H](CO)C(=O)N[C@@H](CO)C(=O)N[C@@H](C)C(=O)N[C@@H](C)C(=O)N[C@@H](CCCNC(=N)N)C(=O)N[C@@H](CCCNC(=N)N)C(=O)N2CCC[C@H]2C(=O)N[C@@H](CC(N)=O)C(=O)N[C@@H](C)C(=O)N2CCC[C@H]2C(=O)N[C@@H](CO)C(=O)N[C@H](C(=O)N[C@@H](CO)C(=O)N[C@@H](C)C(=O)O)[C@@H](C)O)NC(=O)CNC(=O)[C@H](CC(C)C)NC(=O)CNC(=O)[C@H](CO)NC(=O)[C@H](CCSC)NC(=O)[C@H](CO)NC(=O)CNC1=O` [CDNP-S3A4A5R6 [C13]] (HELM PEPTIDE1{G.L.S.K.G.C.F.G.L.K.L.D.R.I.G.S.M.S.G.L.G.C.P.S.S.A.A.R.R.P.N.A.P.S.T.S.A}$PEPTIDE1,PEPTIDE1,6:R3-22:R3$$$V2.0), for which the amount remaining at 4 h worked out at 100%.
As for `CC[C@H](C)[C@@H]1NC(=O)[C@H](CCCNC(=N)N)NC(=O)[C@H](CC(=O)O)NC(=O)[C@H](CC(C)C)NC(=O)[C@H](CCCCN)NC(=O)[C@H](CC(C)C)NC(=O)CNC(=O)[C@H](Cc2ccccc2)NC(=O)[C@@H](NC(=O)CNC(=O)[C@H](CCCCN)NC(=O)[C@H](CO)NC(=O)[C@H](CC(C)C)NC(=O)CNC(=O)CNC(=O)[C@H](CO)NC(=O)[C@H](CO)NC(=O)[C@H](C)NC(=O)[C@H](C)NC(=O)[C@@H]2CCCN2C(=O)[C@H](CCCNC(=N)N)NC(=O)[C@@H]2CCCN2C(=O)[C@H](CC(N)=O)NC(=O)[C@H](C)NC(=O)[C@@H]2CCCN2C(=O)[C@H](CO)NC(=O)[C@@H](NC(=O)[C@H](CO)NC(=O)[C@H](C)N)[C@@H](C)O)CSSC[C@@H](C(=O)O)NC(=O)CNC(=O)[C@H](CC(C)C)NC(=O)CNC(=O)[C@H](CO)NC(=O)[C@H](CCSC)NC(=O)[C@H](CO)NC(=O)CNC1=O` [CNP-Nterm2 [C5]] (HELM PEPTIDE1{A.S.T.S.P.A.N.P.R.P.A.A.S.S.G.G.L.S.K.G.C.F.G.L.K.L.D.R.I.G.S.M.S.G.L.G.C}$PEPTIDE1,PEPTIDE1,21:R3-37:R3$$$V2.0), the amount remaining at 4 h came out at 106%.
“DDDDDDGGGGSGGGGSGGGGGLSKGCFGLKLDRIGSMSGLGC (disulfide 26-42) [D6-14AAlinker-CNP [C3]]”: the amount remaining at 4 h amounted to 101%.
